Measured values taken from paper PMC10119423, “From PERK to RIPK1: Design, synthesis and evaluation of novel potent and selective necroptosis inhibitors” (Frontiers in Chemistry, 2023).
Read-outs that look alike come from different tables or passages of the source.

Legend:
[1] = tested on: immortalized MEFs; assay: RIPK1 kinase-dependent necroptosis (hTNF + zVAD.fmk) in MEFs, Sytox Green; format: cell-based, mouse; conditions: for IC50: Mus musculus; for necroptosis inhibition (in words): mouse cells (MEFs), RIPK1-dependent necroptosis;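 on all read-outs here: cell death taken as background-corrected Sytox Green fluorescence relative to the maximal signal of cells fully permeabilized with 0.1% Triton X-100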
Description: In brief, the cells were seeded in duplicate at 10,000 cells per well in a 96-well adherent plate and incubated overnight at 37°C with 5% CO2. […] All the compound stock solutions were prepared in DMSO at 200 µM concentration. After stimulating the cells with human TNF at 20 ng/mL the plate was transferred to the incubator. […] The cell death was calculated by subtracting the background fluorescence from the induced Sytox Green fluorescence and by dividing the obtained result by the maximal fluorescence (minus the background fluorescence) obtained by permeabilization of the cells by using Triton X-100 at a final concentration of 0.1%. Curves were plotted in GraphPad 9 for the IC50 calculation.
Consequently, the compounds were evaluated for their potential protection of RIPK1-mediated necroptosis following human TNF stimulation.

[2] = tested on: HT-29; assay: Necroptosis (hTNF + TAK1i + zVAD.fmk) in HT-29 cells, Sytox Green; conditions: Homo sapiens, HT-29, read-out: Necroptosis hTNF + TAK1i + zVAD.fmk HT-29 IC50
Description: In brief, the cells were seeded in duplicate at 10,000 cells per well in a 96-well adherent plate and incubated overnight at 37°C with 5% CO2. […] All the compound stock solutions were prepared in DMSO at 200 µM concentration. After stimulating the cells with human TNF at 20 ng/mL the plate was transferred to the incubator. Sytox Green intensity was measured in function of time at 0, 14 and 24 h with an excitation filter of 485 nm, an emission filter of 520 nm. The cell death was calculated by subtracting the background fluorescence from the induced Sytox Green fluorescence and by dividing the obtained result by the maximal fluorescence (minus the background fluorescence) obtained by permeabilization of the cells by using Triton X-100 at a final concentration of 0.1%. Curves were plotted in GraphPad 9 for the IC50 calculation.
To induce necroptosis in human colorectal adenocarcinoma cell line (HT-29) together with hTNF and the pan caspases inhibitor zVAD.fmk, TAK1 inhibitor is also needed.

[3] = tested on: 300 kinases; set-up: method as in Axten et al., 2013; conditions: 10 µM, out of 300 kinases; ref Axten et al., 2013; cited from earlier work
[4] = target: T1, RIPK1 (Mus musculus, UniProt Q60855); assay: RIPK1 autophosphorylation (pS166) by Western blot in MEFs stimulated with hTNF + TAK1i + zVAD.fmk; format: cell-based; conditions: immortalised MEFs, 30 min pretreatment with zVAD.fmk 50 μM, TAK1i 1 μM and compound, hTNF 20 ng/ml for 2.5 h, read-out: RIPK1 inhibition (IC50 estimated from a Western blot)
T1 construct: endogenous in cells; host or cells: immortalized mouse embryonic fibroblasts (MEFs, C57Bl6/J)
T1 sequence (Q60855 1-656): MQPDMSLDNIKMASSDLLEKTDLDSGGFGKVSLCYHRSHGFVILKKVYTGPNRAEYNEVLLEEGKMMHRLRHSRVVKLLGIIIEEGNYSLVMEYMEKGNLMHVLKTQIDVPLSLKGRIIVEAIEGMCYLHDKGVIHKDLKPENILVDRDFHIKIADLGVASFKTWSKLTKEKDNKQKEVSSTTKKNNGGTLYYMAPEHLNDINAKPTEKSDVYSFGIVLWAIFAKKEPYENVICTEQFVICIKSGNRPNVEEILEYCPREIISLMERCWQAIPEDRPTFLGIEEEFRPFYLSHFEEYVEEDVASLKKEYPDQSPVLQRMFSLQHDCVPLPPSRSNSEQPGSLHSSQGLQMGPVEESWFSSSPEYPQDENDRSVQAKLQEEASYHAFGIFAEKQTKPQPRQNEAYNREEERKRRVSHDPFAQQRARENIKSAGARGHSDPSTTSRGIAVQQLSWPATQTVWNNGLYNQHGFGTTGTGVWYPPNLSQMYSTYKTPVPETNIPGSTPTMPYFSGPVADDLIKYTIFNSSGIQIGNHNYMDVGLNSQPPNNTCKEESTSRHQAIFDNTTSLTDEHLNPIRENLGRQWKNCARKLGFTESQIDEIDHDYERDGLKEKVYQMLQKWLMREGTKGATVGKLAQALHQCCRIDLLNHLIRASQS
Description: (§1) MEFs were seeded in 6-well plates at a density of 300.000 cells/well in 2 mL. The next day, the cells were suspended in 1 mL of medium and pre-treated for 30 min with the indicated compounds at 1/5 dilutions series for PERK ranging from 5 to 0.04 µM and 1 μg/mL of Tm followed by 4 h treatment with 20 ng/mL of hTNF. For RIPK1, the cells were pre-treated at 1/10 dilutions series ranging from 10 to 0.01 nM, 50 µM zVAD.fmk and 1 µM TAKi before stimulation with 20 ng/mL of hTNF for 2.5 h. Then, the cells were washed two times with 1 mL of ice-cold PBS before lysis in 0.2 mL of Laemmli buffer 1x (10% (w/v) SDS, 50% glycerol, 0.5% bromophenol blue, 250 mM Tris–HCl pH 6.8) and 250 mM of dithiothreitol (DTT). The cell lysate was then collected and boiled at 95 °C for 10min and stored at −20°C. Proteins expression was later monitored by immunoblotting.
Activation of PERK was induced by stimulation of the cells with Tunicamycin, as previsouly reported ([Bull and Thiede, 2012]). More precisely, the immortalised MEFs were pre-incubated for 30 min with the analogues 18–34 at different concentrations (0.04, 0.2, 1, and 5 µM) prior to 4 h stimulation with Tunicamycin (1 μg/mL). […] Their activities were evaluated by comparing the intensity of the signal to unstimulated MEFs (considered as zero phosphorylation) and Tunicamycin stimulated cells (considered as 100% PERK phosphorylation). The 12 compounds (18–20, 22–29 and 34) that had lost their inhibitory capacity on PERK were then tested for their ability to inhibit RIPK1 as shown in Figures 6A–H. Activation and autophosphorylation of RIPK1 was induced by stimulating the cells with TNF in the presence of TAK1 inhibitor and of the pan-caspases inhibitor zVAD.fmk, a well established necroptotic trigger ([Vanlangenakker et al., 2011]). The MEFs were pre-incubated for 30 min with the different compounds (0.01 nM–1000 nM) and then stimulated with human TNF (20 ng/mL) for 2.5 h. Similar to the PERK assessment, IC50 values for RIPK1 inhibition were estimated as a range of concentrations, and are reported in Table 1. These experiments provide an estimation of the specificity of our analogues against PERK and RIPK1 in comparison to the benchmark GSK’157 already reported as a potent PERK and RIPK1 inhibitor.

[5] = tested on: MEFs; assay: RIPK1 kinase-dependent apoptosis (hTNF + TAK1i) in MEFs, Sytox Green; format: cell-based; conditions: Mus musculus, TAK1i + hTNF (100 pg/mL)
From the text: In MEFs, TNF together with the pan caspases inhibitor zVAD.fmk induces RIPK1-dependent necroptosis while TNF together with TAK1 inhibitor induces RIPK1 kinase-dependent apoptosis. We also included the conditions selected for the Western blot experiments, where necroptosis was induced by the combination of hTNF, zVAD.fmk and TAK1 inhibitor.

[6] = target: T2, PERK (Mus musculus, UniProt Q9Z2B5); assay: PERK autophosphorylation by Western blot in tunicamycin-stimulated immortalized MEFs; format: cell-based; conditions: immortalized MEFs, 30 min pretreatment, tunicamycin 1 μg/ml for 4 h; PERK autophosphorylation; read-out: PERK inhibition (IC50 estimated from a Western blot)
T2 construct: Immortalized MEFs were pretreated for 30 min with increasing concentrations of GSK’157 and the indicated compounds and stimulated with tunicamycin; endogenous in cells; host or cells: immortalized mouse embryonic fibroblasts (MEFs, C57Bl6/J)
T2 sequence (Q9Z2B5 29-1114): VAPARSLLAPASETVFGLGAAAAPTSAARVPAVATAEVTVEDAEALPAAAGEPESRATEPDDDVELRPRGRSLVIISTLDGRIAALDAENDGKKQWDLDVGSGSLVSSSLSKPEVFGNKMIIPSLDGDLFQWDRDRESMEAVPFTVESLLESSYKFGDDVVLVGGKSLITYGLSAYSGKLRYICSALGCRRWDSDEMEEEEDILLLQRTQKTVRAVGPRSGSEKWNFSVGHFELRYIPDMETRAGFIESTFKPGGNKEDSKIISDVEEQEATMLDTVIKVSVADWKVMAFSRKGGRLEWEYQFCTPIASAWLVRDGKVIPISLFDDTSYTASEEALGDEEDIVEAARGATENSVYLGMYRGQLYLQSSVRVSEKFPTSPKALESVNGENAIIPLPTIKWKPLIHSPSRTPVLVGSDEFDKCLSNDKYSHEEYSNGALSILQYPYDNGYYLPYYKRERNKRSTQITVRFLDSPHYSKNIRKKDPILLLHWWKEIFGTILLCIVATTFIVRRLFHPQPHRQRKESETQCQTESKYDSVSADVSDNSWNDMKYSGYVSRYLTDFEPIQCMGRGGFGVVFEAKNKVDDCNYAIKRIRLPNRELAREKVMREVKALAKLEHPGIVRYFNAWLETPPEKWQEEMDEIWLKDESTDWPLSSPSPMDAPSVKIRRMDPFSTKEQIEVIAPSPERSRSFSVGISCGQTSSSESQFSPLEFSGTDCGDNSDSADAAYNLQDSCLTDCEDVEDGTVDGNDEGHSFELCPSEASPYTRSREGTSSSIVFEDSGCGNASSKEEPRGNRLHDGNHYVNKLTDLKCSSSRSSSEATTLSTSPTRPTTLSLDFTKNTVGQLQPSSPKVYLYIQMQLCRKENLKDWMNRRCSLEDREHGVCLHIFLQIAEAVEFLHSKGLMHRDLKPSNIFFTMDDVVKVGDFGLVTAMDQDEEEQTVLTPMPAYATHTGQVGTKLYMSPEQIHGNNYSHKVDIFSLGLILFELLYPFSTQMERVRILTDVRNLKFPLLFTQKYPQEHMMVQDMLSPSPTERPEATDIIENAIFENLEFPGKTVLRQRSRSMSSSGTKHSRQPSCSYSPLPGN
Description: as §1
Their activities were evaluated by comparing the intensity of the signal to unstimulated MEFs (considered as zero phosphorylation) and Tunicamycin stimulated cells (considered as 100% PERK phosphorylation). […] The MEFs were pre-incubated for 30 min with the different compounds (0.01 nM–1000 nM) and then stimulated with human TNF (20 ng/mL) for 2.5 h. Similar to the PERK assessment, IC50 values for RIPK1 inhibition were estimated as a range of concentrations, and are reported in Table 1.

[7] = tested on: panel of 294 kinases; set-up: method as in Axten et al., 2012; conditions: 10 µM, ref Axten et al., 2012; cited from earlier work
[8] = 24 h, MEFs, hTNF + zVAD.fmk (20 ng/mL), Table 2, read-out: Necroptosis hTNF + zVAD.fmk MEFs IC50
[9] = 24 h, immortalized MEFs, zVAD-fmk 50 μM + hTNF 20 ng/ml, Sytox Green at 24 h, Table 1 series, read-out: IC50 necroptosis
[10] = MEFs, hTNF + zVAD.fmk, read-out: IC50 necroptosis inhibition

Row | SMILES | IC50 [4] [nM] | IC50 [6] [nM] | IC50 [1, 9] [nM] | also measured
1 | Cc1cccc(CC(=O)N2CCc3c2ccc(-c2cn(C)c4ncnc(N)c24)c3F)n1 [Compound 10, reference compound] | 0.1 to 1 |  |  | IC50 ([1]; 24 h, read-out: IC50 necroptosis): 0.42 nM; IC50 [1, 8]: 0.7 nM; IC50 [2]: 3.1 nM; number of kinases inhibited with more than 80% [3]: 17; IC50 [5]: 3.7 nM
2 | Cn1cc(-c2ccc3c(c2F)CCN3C(=O)Cc2ccc(F)cn2)c2c(N)ncnc21 [Compound 18] | ≥ 10 | > 5000 | 13.5 | 
3 | Cn1cc(-c2ccc3c(c2F)CCN3C(=O)Cc2ccc(Cl)cn2)c2c(N)ncnc21 [Compound 19] | 1 to 10 | > 5000 | 2.5 | 
4 | Cn1cc(-c2ccc3c(c2F)CCN3C(=O)Cc2ccc(Br)cn2)c2c(N)ncnc21 [Compound 20] | 1 to 10 | > 5000 | 3.2 | 
5 | Cc1ccc(CC(=O)N2CCc3c2ccc(-c2cn(C)c4ncnc(N)c24)c3F)nc1 [Compound 21] | ≥ 10 | 1000 to 5000 | 37 | 
6 | COc1ccc(CC(=O)N2CCc3c2ccc(-c2cn(C)c4ncnc(N)c24)c3F)nc1 [Compound 23] | ≥ 10 | ≥ 5000 | 39 | 
7 | Cn1cc(-c2ccc3c(c2F)CCN3C(=O)Cc2ccc(C3CC3)cn2)c2c(N)ncnc21 [Compound 24] | ≥ 10 | > 5000 | 33.5 | 
8 | Cn1cc(-c2ccc3c(c2F)CCN3C(=O)Cc2ccc(C(C)(C)C)cn2)c2c(N)ncnc21 [Compound 25] | ≥ 10 | > 5000 | 40 | 
9 | Cn1cc(-c2ccc3c(c2F)CCN3C(=O)Cc2ccc(O)cn2)c2c(N)ncnc21 [Compound 26] | ≥ 10 | ≥ 5000 | 2530 | IC50 [1, 10]: > 2000 nM
10 | Cn1cc(-c2ccc3c(c2F)CCN3C(=O)Cc2ccncc2)c2c(N)ncnc21 [Compound 27] | ≥ 10 | > 5000 | 3020 | IC50 [1, 10]: > 2000 nM
11 | Cn1cc(-c2ccc3c(c2F)CCN3C(=O)Cc2ccc(Cc3ccccc3)cn2)c2c(N)ncnc21 [Compound 28] | ≥ 10 | ≥ 5000 | 62 | 
12 | Cn1cc(-c2ccc3c(c2F)CCN3C(=O)Cc2ccc(-c3ccccc3)cn2)c2c(N)ncnc21 [Compound 29] | ≥ 10 | > 5000 | > 10000 | 
13 | Cn1cc(-c2ccc3c(c2F)CCN3C(=O)Cc2ccc(F)cc2)c2c(N)ncnc21 [Compound 30] | 0.1 to 1 | 1000 to 5000 | 0.01 | fold higher potency than GSK’157 (necroptosis IC50) ([1]; MEFs, hTNF + zVAD.fmk): 40 fold
14 | Cn1cc(-c2ccc3c(c2F)CCN3C(=O)Cc2ccc(Cl)cc2)c2c(N)ncnc21 [Compound 31] | 0.1 to 1 | 1000 to 5000 | 0.4 | 
15 | Cn1cc(-c2ccc3c(c2F)CCN3C(=O)Cc2ccc(Br)cc2)c2c(N)ncnc21 [Compound 32] | 1 to 10 | 1000 to 5000 | 0.3 | 
16 | Cc1ccc(CC(=O)N2CCc3c2ccc(-c2cn(C)c4ncnc(N)c24)c3F)cc1 [Compound 33] | ≥ 10 | 1000 to 5000 | > 10000 | necroptosis inhibition (in words) [1]: complete loss of necroptosis inhibition
17 | Cn1cc(-c2ccc3c(c2F)CCN3C(=O)Cc2ccc(C(F)(F)F)cc2)c2c(N)ncnc21 [Compound 34] | 1 to 10 | ≥ 5000 | 1.1 | 
18 | Cn1cc(-c2ccc3c(c2)CCN3C(=O)Cc2cccc(C(F)(F)F)c2)c2c(N)ncnc21 [GSK’414, 7-methyl-5-(1-{[3-(trifluoromethyl)phenyl]acetyl}-2,3-dihydro-1H-indol-5-yl)-7H-pyrrolo[2,3-d]pyrimidin-4-amine] |  |  |  | number of kinases inhibited with more than 85% [7]: 20
19 | CN1C(=O)[C@@H](NC(=O)c2n[nH]c(Cc3ccccc3)n2)COc2ccccc21 [GSK’772, reference compound] |  |  |  | IC50 [1, 8]: > 100 nM; necroptosis inhibition (in words) [1]: no activity; IC50 [2]: 0.2 nM; IC50 [5]: > 100 nM
